Laboratory results published in ChEMBL document CHEMBL1201862, “PubChem BioAssay data set” (2004).
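Step 1: Grow cells in 96-well plates. Step 2: Expose to compound for 48 hours at 5 concentrations. Step 3: Interpolate endpoints linearly; if unreached, use highest concentration. Abbreviation: GI50, concentration required for 50% inhibition of growth.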 The source made the active and inactive calls. Rule as the data show it: active = GI50 up to about 1.1 µM and inactive = higher.

Experiments:
Assay in all cases: NCI-60 cell line screen, 48 h
K562 = system: K562
SK-OV-3 = system: SK-OV-3
CAKI-1 = system: CAKI-1
RPMI-8226 = system: RPMI-8226
BT-549 = system: BT-549
SN12C = system: SN12C
SF-539 = system: SF-539
TK-10 = system: TK-10
HCT-116 = system: HCT-116
HL-60 = system: HL-60
HCC 2998 = system: HCC 2998
SK-MEL-2 = system: SK-MEL-2
U-251 = system: U-251
SK-MEL-5 = system: SK-MEL-5
UACC-257 = system: UACC-257
IGROV-1 = system: IGROV-1
ACHN = system: ACHN
SNB-19 = system: SNB-19
UACC-62 = system: UACC-62
MOLT-4 = system: MOLT-4

Measured: GI50

O=C(O)COc1cc(-c2ccccc2)nc2ccccc12
inactive: K562 36.8 µM | SK-OV-3 73.3 µM | CAKI-1 > 100 µM | RPMI-8226 86.7 µM | BT-549 > 100 µM | SN12C > 100 µM | SF-539 70.8 µM | TK-10 > 100 µM | HCT-116 36.8 µM | HL-60 41.2 µM | HCC 2998 > 100 µM | SK-MEL-2 > 100 µM | U-251 71.9 µM | SK-MEL-5 33.9 µM | UACC-257 > 100 µM | IGROV-1 56.4 µM | ACHN > 100 µM | SNB-19 98.4 µM | UACC-62 > 10 µM | MOLT-4 47.2 µM

O=C1NC(N2CCCC(CO)C2)=N/C1=C\c1ccc(Cl)cc1 (stereo not given)
inactive: K562 > 100 µM | SK-OV-3 > 100 µM | CAKI-1 > 100 µM | RPMI-8226 > 100 µM | BT-549 > 100 µM | SN12C > 100 µM | SF-539 > 100 µM | TK-10 > 100 µM | HCT-116 > 100 µM | HL-60 > 100 µM | HCC 2998 35.9 µM | SK-MEL-2 > 100 µM | U-251 > 100 µM | SK-MEL-5 > 100 µM | UACC-257 > 100 µM | IGROV-1 37.1 µM | ACHN > 100 µM | SNB-19 > 100 µM | UACC-62 > 100 µM | MOLT-4 > 100 µM
